{
  "source": "ChEMBL document CHEMBL1130513",
  "about": "“New hepatoprotective saponins, bupleurosides III, VI, IX, and XIII, from Chinese Bupleuri Radix: Structure-requirements for the cytoprotective activity in primary cultured rat hepatocytes” (1997)",
  "format_in_all_cases": "functional",
  "key": {"Mus musculus [1]": {"tested_on": "Mus musculus", "assay": "Inhibitory effect on D-GalN/LPS (injected i.p. dose of 350 mg/kg and 10 ug/kg) induced hepatic injury in mice at 20 mg/kg, ip"}, "Rattus norvegicus [2]": {"organism": "Rattus norvegicus", "assay": "In vitro inhibitory effect on D-Galactosamine induced cytotoxicity in primary cultured rat hepatocytes at 30 ug/mL", "conditions": "Hepatocyte"}, "Mus musculus [3]": {"tested_on": "Mus musculus", "assay": "Inhibitory effect on D-GalN/LPS (injected i.p. dose of 350 mg/kg and 10 ug/kg) induced hepatic injury in mice at 10 mg/kg, ip"}, "Rattus norvegicus [4]": {"organism": "Rattus norvegicus", "assay": "In vitro inhibitory effect on D-Galactosamine induced cytotoxicity in primary cultured rat hepatocytes at 3 ug/mL", "conditions": "Hepatocyte"}, "Rattus norvegicus [5]": {"organism": "Rattus norvegicus", "assay": "In vitro inhibitory effect on D-Galactosamine induced cytotoxicity in primary cultured rat hepatocytes at 10 ug/mL", "conditions": "Hepatocyte"}, "Rattus norvegicus [6]": {"organism": "Rattus norvegicus", "assay": "In vitro inhibitory effect on D-Galactosamine induced cytotoxicity in primary cultured rat hepatocytes at 0.3 ug/mL", "conditions": "Hepatocyte"}, "Rattus norvegicus [7]": {"organism": "Rattus norvegicus", "assay": "In vitro inhibitory effect on D-Galactosamine induced cytotoxicity in primary cultured rat hepatocytes at 1 ug/mL", "conditions": "Hepatocyte"}},
  "data": [
    {"smiles": "C[C@]12CCC(=O)C=C1CCC1[C@@H]2[C@@H](O)C[C@@]2(C)[C@H]1CC[C@]2(O)C(=O)CO", "note": "(single isomer, unassigned) [HYDROCORTISONE]", "values": [
      {"measurement": "s-GOT level", "setting": "Mus musculus [1]", "value": 331, "unit": "Karmen units"},
      {"measurement": "s-GPT level", "setting": "Mus musculus [1]", "value": 202, "unit": "Karmen units"}
    ]},
    {"smiles": "C[C@H]1O[C@@H](O[C@H]2CC[C@@]3(C)C(CC[C@]4(C)C3[C@H](O)CC3C5=CC(C)(C)CC[C@]5(CO)[C@@H](O)C[C@]34C)[C@]2(C)CO)[C@H](O)[C@@H](O[C@@H]2O[C@H](CO)[C@@H](O)[C@H](O)[C@H]2O)[C@H]1O", "note": "(stereo not given in full)", "values": [
      {"measurement": "inhibition at 30 µg/mL", "setting": "Rattus norvegicus [2]", "value": 64.7, "unit": "%"},
      {"measurement": "s-GOT level", "setting": "Mus musculus [3]", "value": 1209, "unit": "Karmen units"},
      {"measurement": "s-GPT level", "setting": "Mus musculus [3]", "value": 1265, "unit": "Karmen units"},
      {"measurement": "inhibition at 3 µg/mL", "setting": "Rattus norvegicus [4]", "value": 59.4, "unit": "%"},
      {"measurement": "inhibition at 10 µg/mL", "setting": "Rattus norvegicus [5]", "value": 69.5, "unit": "%"},
      {"measurement": "inhibition at 0.3 µg/mL", "setting": "Rattus norvegicus [6]", "value": 15.8, "unit": "%"},
      {"measurement": "inhibition at 1 µg/mL", "setting": "Rattus norvegicus [7]", "value": 39.7, "unit": "%"}
    ]},
    {"smiles": "CO[C@@H]1C=C2C3CC(C)(C)CC[C@]3(CO)[C@H](O)C[C@@]2(C)[C@]2(C)CCC3[C@](C)(CCC(O[C@@H]4O[C@H](C)[C@H](O)[C@H](O[C@@H]5O[C@H](CO)[C@@H](O)[C@H](O)[C@H]5O)[C@H]4O)[C@@]3(C)CO)C12", "note": "(stereo not given in full)", "values": [
      {"measurement": "inhibition at 30 µg/mL", "setting": "Rattus norvegicus [2]", "value": -9.9, "unit": "%"},
      {"measurement": "inhibition at 3 µg/mL", "setting": "Rattus norvegicus [4]", "value": -6.9, "unit": "%"},
      {"measurement": "inhibition at 10 µg/mL", "setting": "Rattus norvegicus [5]", "value": -8.3, "unit": "%"},
      {"measurement": "inhibition at 0.3 µg/mL", "setting": "Rattus norvegicus [6]", "value": 3.6, "unit": "%"},
      {"measurement": "inhibition at 1 µg/mL", "setting": "Rattus norvegicus [7]", "value": -4, "unit": "%"}
    ]},
    {"smiles": "C[C@H]1O[C@@H](O[C@H]2CC[C@@]3(C)C(CC[C@]4(C)C3C(=O)C=C3C5CC(C)(C)CC[C@]5(CO)[C@@H](O)C[C@]34C)[C@]2(C)CO)[C@H](O)[C@@H](O[C@@H]2O[C@H](CO)[C@@H](O)[C@H](O)[C@H]2O)[C@H]1O", "note": "(stereo not given in full)", "values": [
      {"measurement": "inhibition at 30 µg/mL", "setting": "Rattus norvegicus [2]", "value": 90.9, "unit": "%"},
      {"measurement": "s-GOT level", "setting": "Mus musculus [3]", "value": 7211, "unit": "Karmen units"},
      {"measurement": "s-GPT level", "setting": "Mus musculus [3]", "value": 7887, "unit": "Karmen units"},
      {"measurement": "inhibition at 3 µg/mL", "setting": "Rattus norvegicus [4]", "value": 44.5, "unit": "%"},
      {"measurement": "s-GOT level", "setting": "Mus musculus [1]", "value": 1404, "unit": "Karmen units"},
      {"measurement": "s-GPT level", "setting": "Mus musculus [1]", "value": 1530, "unit": "Karmen units"},
      {"measurement": "inhibition at 10 µg/mL", "setting": "Rattus norvegicus [5]", "value": 72.8, "unit": "%"},
      {"measurement": "inhibition at 0.3 µg/mL", "setting": "Rattus norvegicus [6]", "value": 5.5, "unit": "%"},
      {"measurement": "inhibition at 1 µg/mL", "setting": "Rattus norvegicus [7]", "value": 16.9, "unit": "%"}
    ]},
    {"smiles": "CO[C@@H]1C=C2C3CC(C)(C)CC[C@]3(CO)[C@@H](O)C[C@@]2(C)[C@]2(C)CCC3[C@](C)(CCC(O[C@@H]4O[C@H](C)[C@H](O)[C@H](O[C@@H]5O[C@H](CO)[C@@H](O)[C@H](O)[C@H]5O)[C@H]4O)[C@@]3(C)CO)C12", "note": "(stereo not given in full)", "values": [
      {"measurement": "inhibition at 30 µg/mL", "setting": "Rattus norvegicus [2]", "value": 72.1, "unit": "%"},
      {"measurement": "inhibition at 3 µg/mL", "setting": "Rattus norvegicus [4]", "value": 56.4, "unit": "%"},
      {"measurement": "inhibition at 10 µg/mL", "setting": "Rattus norvegicus [5]", "value": 70.4, "unit": "%"},
      {"measurement": "inhibition at 0.3 µg/mL", "setting": "Rattus norvegicus [6]", "value": 8.7, "unit": "%"},
      {"measurement": "inhibition at 1 µg/mL", "setting": "Rattus norvegicus [7]", "value": 13.9, "unit": "%"}
    ]},
    {"smiles": "C[C@@H]1O[C@@H](O[C@@H]2[C@H](O)[C@@H](O)[C@H](O[C@H]3CC[C@@]4(C)C(CC[C@]5(C)C4C=C[C@]46OC[C@@]7(CCC(C)(C)CC74)[C@@H](O)C[C@]65C)C3(C)C)O[C@@H]2CO[C@@H]2O[C@H](CO)[C@@H](O)[C@H](O)[C@H]2O)[C@H](O)[C@H](O)[C@H]1O", "note": "(stereo not given in full) [SAIKOSAPONIN C]", "values": [
      {"measurement": "inhibition at 30 µg/mL", "setting": "Rattus norvegicus [2]", "value": -1, "unit": "%"},
      {"measurement": "inhibition at 3 µg/mL", "setting": "Rattus norvegicus [4]", "value": -1.9, "unit": "%"},
      {"measurement": "inhibition at 10 µg/mL", "setting": "Rattus norvegicus [5]", "value": -1, "unit": "%"},
      {"measurement": "inhibition at 0.3 µg/mL", "setting": "Rattus norvegicus [6]", "value": -1.5, "unit": "%"},
      {"measurement": "inhibition at 1 µg/mL", "setting": "Rattus norvegicus [7]", "value": -0.7, "unit": "%"}
    ]},
    {"smiles": "C[C@H]1O[C@@H](O[C@H]2CC[C@@]3(C)C(CC[C@]4(C)C3[C@H](O)C=C3C5CC(C)(C)CC[C@]5(CO)[C@@H](O)C[C@]34C)[C@]2(C)CO)[C@H](O)[C@@H](O[C@@H]2O[C@H](CO)[C@@H](O)[C@H](O)[C@H]2O)[C@H]1O", "note": "(stereo not given in full)", "values": [
      {"measurement": "inhibition at 30 µg/mL", "setting": "Rattus norvegicus [2]", "value": 46.5, "unit": "%"},
      {"measurement": "s-GOT level", "setting": "Mus musculus [3]", "value": 1261, "unit": "Karmen units"},
      {"measurement": "s-GPT level", "setting": "Mus musculus [3]", "value": 1483, "unit": "Karmen units"},
      {"measurement": "inhibition at 3 µg/mL", "setting": "Rattus norvegicus [4]", "value": 35.6, "unit": "%"},
      {"measurement": "inhibition at 10 µg/mL", "setting": "Rattus norvegicus [5]", "value": 43.1, "unit": "%"},
      {"measurement": "inhibition at 0.3 µg/mL", "setting": "Rattus norvegicus [6]", "value": 6.8, "unit": "%"},
      {"measurement": "inhibition at 1 µg/mL", "setting": "Rattus norvegicus [7]", "value": 16.7, "unit": "%"}
    ]},
    {"smiles": "CO[C@@H]1C=C2C3CC(C)(C)CC[C@]3(CO)[C@H](O)C[C@@]2(C)[C@]2(C)CCC3[C@](C)(CC[C@H](O[C@@H]4O[C@H](C)[C@H](O)[C@H](O[C@@H]5O[C@H](CO)[C@@H](O)[C@H](O)[C@H]5O[C@@H]5O[C@H](CO)[C@@H](O)[C@H](O)[C@H]5O)[C@H]4O)[C@@]3(C)CO)C12", "note": "(stereo not given in full)", "values": [
      {"measurement": "inhibition at 30 µg/mL", "setting": "Rattus norvegicus [2]", "value": -2.9, "unit": "%"},
      {"measurement": "inhibition at 3 µg/mL", "setting": "Rattus norvegicus [4]", "value": -0.4, "unit": "%"},
      {"measurement": "inhibition at 10 µg/mL", "setting": "Rattus norvegicus [5]", "value": -2.2, "unit": "%"},
      {"measurement": "inhibition at 0.3 µg/mL", "setting": "Rattus norvegicus [6]", "value": 1.7, "unit": "%"},
      {"measurement": "inhibition at 1 µg/mL", "setting": "Rattus norvegicus [7]", "value": 0.3, "unit": "%"}
    ]},
    {"smiles": "C[C@H]1O[C@@H](OC2CC[C@@]3(C)C(CC[C@]4(C)C3C=CC3=C5CC(C)(C)CC[C@]5(CO)[C@@H](O)C[C@]34C)[C@]2(C)CO)[C@H](O)[C@@H](O[C@@H]2O[C@H](CO)[C@@H](O)[C@H](O)[C@H]2O)[C@H]1O", "note": "(stereo not given in full)", "values": [
      {"measurement": "inhibition at 30 µg/mL", "setting": "Rattus norvegicus [2]", "value": -5.1, "unit": "%"},
      {"measurement": "inhibition at 3 µg/mL", "setting": "Rattus norvegicus [4]", "value": 4.3, "unit": "%"},
      {"measurement": "inhibition at 10 µg/mL", "setting": "Rattus norvegicus [5]", "value": 8.7, "unit": "%"},
      {"measurement": "inhibition at 0.3 µg/mL", "setting": "Rattus norvegicus [6]", "value": 0.1, "unit": "%"},
      {"measurement": "inhibition at 1 µg/mL", "setting": "Rattus norvegicus [7]", "value": -1.4, "unit": "%"}
    ]},
    {"smiles": "C[C@@H]1O[C@@H](O[C@@H]2[C@H](O)[C@@H](O)[C@H](O[C@H]3CC[C@@]4(C)C(CC[C@]5(C)C4C(=O)C=C4C6CC(C)(C)CC[C@]6(CO)[C@@H](O)C[C@]45C)C3(C)C)O[C@@H]2CO[C@@H]2O[C@H](CO)[C@@H](O)[C@H](O)[C@H]2O)[C@H](O)[C@H](O)[C@H]1O", "note": "(stereo not given in full) [BUPLEUROSIDE VII]", "values": [
      {"measurement": "inhibition at 30 µg/mL", "setting": "Rattus norvegicus [2]", "value": 3.2, "unit": "%"},
      {"measurement": "inhibition at 3 µg/mL", "setting": "Rattus norvegicus [4]", "value": 4.3, "unit": "%"},
      {"measurement": "inhibition at 10 µg/mL", "setting": "Rattus norvegicus [5]", "value": 2.2, "unit": "%"},
      {"measurement": "inhibition at 0.3 µg/mL", "setting": "Rattus norvegicus [6]", "value": -0.6, "unit": "%"},
      {"measurement": "inhibition at 1 µg/mL", "setting": "Rattus norvegicus [7]", "value": 2.5, "unit": "%"}
    ]}
  ]
}
